Patent US20240050577A1, “CDK INHIBITORS AND PHARMACEUTICAL USES THEREOF” (RISEN (SUZHOU) PHARMA TECH CO., LTD., priority 2022, published 2024)

The compounds below were run on OVCAR3 cells (assay: Cell proliferation study (Cell Titer Glo, 72 h)). Conditions: Homo sapiens, OVCAR-3, luminescence, read-out: IC50, inhibitory effect on cellular proliferation.
Format: cell-based
Experimental: OVCAR3 (Cobioer, CBP60294) cell line in logarithmic growth phase was used for these experiments. The cell density was adjusted to 1.1×10^4/mL and the cells were inoculated into a 96-well cell culture plate (Corning, 3599), 95 μL per well (the number of cells per well was 1×10^3). The culture plate was placed in an incubator, with 5% carbon dioxide, at 37° C. and incubated overnight. On the next day, a 10 mM stock solution of test compound was prepared in DMSO (Sigma, RNBF5902). After gradient dilution, a series of working solutions with different concentrations of test compound was prepared using complete medium. Working solution was added into the corresponding wells of the orifice plate, and the plate was placed in a 5% carbon dioxide incubator and cultivated at 37° C. for 72 h, and then removed from the incubator. To each well was added 50 μL Cell Tier Glo (Promega, G7573), and the plate was incubated at room temperature for 10 min, followed by luminescence detection with an enzyme marker. The inhibition curve was obtained with GraphPad 7.0 software using four-parameter equation.

| Structure (SMILES) | IC50 |
| --- | --- |
| C[C@@]1(O)CCC[C@H]1n1c(=O)ccc2cnc(NC3CCN(S(=O)(=O)C4CCN(CC5CC6(CCN(c7cc8c(cc7F)C(=O)N(C7CCC(=O)NC7=O)C8=O)CC6)C5)CC4)CC3)nc21 (some centres unmarked) [Compound 82] | 101 to 1000 nM |
| C[C@@]1(O)CCC[C@H]1n1c(=O)ccc2cnc(Nc3ccc(S(=O)(=O)C4CCN(C5CCC6(CC5)CN(c5cc7c(cc5F)C(=O)N(C5CCC(=O)NC5=O)C7=O)C6)CC4)cc3)nc21 (some centres unmarked) [Compound 45] | > 10000 nM |
| Cc1nc2c(F)cc(-c3nc(NC4CCN(S(=O)(=O)C5CCN(CC6CC7(CCN(c8cc9c(cc8F)C(=O)N(C8CCC(=O)NC8=O)C9=O)CC7)C6)CC5)CC4)ncc3F)cc2n1C(C)C (centres unmarked) [Compound 98] | 101 to 1000 nM |
| Cc1nc2c(F)cc(-c3nc(Nc4ccc(S(=O)(=O)N5CCC6(CCN(CC7CCN(c8cc9c(cc8F)C(=O)N(C8CCC(=O)NC8=O)C9=O)CC7)CC6)CC5)cc4)ncc3F)cc2n1C(C)C (centres unmarked) [Compound 106] | 1000 to 5000 nM |
| CC(C)N1CCOc2c(F)cc(-c3nc(Nc4ccc(S(=O)(=O)N5CCN(C(=O)C6CCN(c7cccc8c7C(=O)N(C7CCC(=O)NC7=O)C8=O)CC6)CC5)cc4)ncc3F)cc21 (centres unmarked) [Compound 53] | > 10000 nM |
| C[C@@]1(O)CCC[C@H]1n1c(=O)ccc2cnc(NC3CCN(S(=O)(=O)CCCCCCCCCOc4cccc5c4C(=O)N(C4CCC(=O)NC4=O)C5=O)CC3)nc21 (some centres unmarked) [Compound 92] | > 10000 nM |
| CC(C)N1CCOc2c(F)cc(-c3nc(Nc4ccc(S(=O)(=O)N5CCN(CC6CCN(c7cccc8c7C(=O)N(C7CCC(=O)NC7=O)C8=O)CC6)CC5)cc4)ncc3F)cc21 (centres unmarked) [Compound 54] | > 10000 nM |
| CC(C)N1CCOc2c(F)cc(-c3nc(Nc4ccc(S(=O)(=O)N5CCN(C6CN(C7CCN(c8cccc9c8C(=O)N(C8CCC(=O)NC8=O)C9=O)CC7)C6)CC5)cc4)ncc3F)cc21 (centres unmarked) [Compound 52] | 1000 to 5000 nM |
| C[C@@]1(O)CCC[C@H]1n1c(=O)ccc2cnc(NC3CCN(S(=O)(=O)N4CCN(CC5CCN(c6cc7c(cc6F)C(=O)N(C6CCC(=O)NC6=O)C7=O)C5)CC4)CC3)nc21 (some centres unmarked) [Compound 61] | 101 to 1000 nM |
| Cc1nc2c(F)cc(-c3nc(NC4CCN(S(=O)(=O)C5CCN(CC6CCN(c7cc8c(cc7F)C(=O)N(C7CCC(=O)NC7=O)C8=O)C6)CC5)CC4)ncc3F)cc2n1C(C)C (centres unmarked) [Compound 108] | < 100 nM |
| C[C@@]1(O)CCC[C@H]1n1c(=O)ccc2cnc(Nc3ccc(S(=O)(=O)C4CCN(CC5CCN(c6cc7c(cc6F)C(=O)N(C6CCC(=O)NC6=O)C7=O)CC5)CC4)cc3)nc21 (some centres unmarked) [Compound 23] | > 10000 nM |
| C[C@@]1(O)CCC[C@H]1n1c(=O)ccc2cnc(Nc3ccc(S(=O)(=O)C4CCN(C5CC6(CCN(c7cc8c(cc7F)C(=O)N(C7CCC(=O)NC7=O)C8=O)CC6)C5)CC4)cc3)nc21 (some centres unmarked) [Compound 22] | > 10000 nM |
| Cc1nc2c(F)cc(-c3nc(Nc4ccc(S(=O)(=O)NCCOCCOCCNc5cc6c(cc5F)C(=O)N(C5CCC(=O)NC5=O)C6=O)cc4)ncc3F)cc2n1C(C)C (centres unmarked) [Compound 69] | 1000 to 5000 nM |
| CC(C)N1CCOc2c(F)cc(-c3nc(Nc4ccc(S(=O)(=O)NCCOCc5cn(CCOCCOCCNc6cc7c(cc6F)C(=O)N(C6CCC(=O)NC6=O)C7=O)nn5)cc4)ncc3F)cc21 (centres unmarked) [Compound 21, N-[2-[[1-[2-[2-[2-[[2-(2,6-dioxo-3-piperidyl)-6-fluoro-1,3-dioxo-isoindolin-5-yl]amino]ethoxy]ethoxy]ethyl]triazol-4-yl]methoxy]ethyl]-4-[[5-fluoro-4-(8-fluoro-4-isopropyl-2,3-dihydro-1,4-benzoxazin-6-yl)pyrimidin-2-yl]amino]benzenesulfonamide] | 1000 to 5000 nM |
| CC(C)N1CCOc2c(F)cc(-c3nc(Nc4ccc(C5CCN(C(=O)CCCCCCCCOc6cccc7c6C(=O)N(C6CCC(=O)NC6=O)C7=O)CC5)cn4)ncc3F)cc21 (centres unmarked) [Compound 7] | > 10000 nM |
| C[C@@]1(O)CCC[C@H]1n1c(=O)ccc2cnc(NC3CCN(S(=O)(=O)C4CCN(C5CC6(CC(NC(=O)C7CCN(c8cc9c(cc8F)C(=O)N(C8CCC(=O)NC8=O)C9=O)CC7)C6)C5)CC4)CC3)nc21 (some centres unmarked) [Compound 86] | 101 to 1000 nM |
| Cc1nc2c(F)cc(-c3nc(Nc4ccc(S(=O)(=O)N5CCN(CC6CCN(c7ccc8c(c7)C(=O)N(C7CCC(=O)NC7=O)C8=O)CC6)CC5)cc4)ncc3F)cc2n1C(C)C (centres unmarked) [Compound 68] | 101 to 1000 nM |
| CC(C)[C@@H]1CC[C@@H](C)C[C@H]1OCC(=O)NCCS(=O)(=O)N1CCC(Nc2ncc(F)c(-c3cc(F)c4c(c3)N(C(C)C)CCO4)n2)CC1 [Compound 27] | > 10000 nM |
| C[C@@]1(O)CCC[C@H]1n1c(=O)c(C(F)F)cc2cnc(NC3CCN(S(=O)(=O)C4CCN(C5CC6(CCN(c7cc8c(cc7F)C(=O)N(C7CCC(=O)NC7=O)C8=O)CC6)C5)CC4)CC3)nc21 (some centres unmarked) [Compound 35] | 101 to 1000 nM |
| Cc1nc2c(F)cc(-c3nc(NC4CCN(S(=O)(=O)C5CCN(CC6CC7CCC(C6)N7c6cc7c(cc6F)C(=O)N(C6CCC(=O)NC6=O)C7=O)CC5)CC4)ncc3F)cc2n1C(C)C (centres unmarked) [Compound 99] | 101 to 1000 nM |

| Structure (SMILES) | IC50 |
| --- | --- |
| Cc1nc2c(F)cc(-c3nc(NC4CCN(S(=O)(=O)C5CCN(CC6CCC7(CC6)CN(c6cc8c(cc6F)C(=O)N(C6CCC(=O)NC6=O)C8=O)C7)CC5)CC4)ncc3F)cc2n1C(C)C (centres unmarked) [Compound 97] | 101 to 1000 nM |
| Cc1nc2c(F)cc(-c3nc(NC4CCN(S(=O)(=O)C5CN(CC6CN(c7cc8c(cc7F)C(=O)N(C7CCC(=O)NC7=O)C8=O)C6)C5)CC4)ncc3F)cc2n1C(C)C (centres unmarked) [Compound 109] | 1000 to 5000 nM |
| C[C@@]1(O)CCC[C@H]1n1c(=O)ccc2cnc(NC3CCN(S(=O)(=O)C4CCN(C(=O)CC5CCN(c6cc7c(cc6F)C(=O)N(C6CCC(=O)NC6=O)C7=O)CC5)CC4)CC3)nc21 (some centres unmarked) [Compound 62] | 1000 to 5000 nM |
| Cc1nc2c(F)cc(-c3nc(NC4CCN(S(=O)(=O)C5CN(CC6CCN(c7cc8c(cc7F)C(=O)N(C7CCC(=O)NC7=O)C8=O)CC6)C5)CC4)ncc3F)cc2n1C(C)C (centres unmarked) [Compound 100] | 101 to 1000 nM |
| CC(C)N1CCOc2c(F)cc(-c3nc(Nc4ccc(C5CCN(CCOCCOCCOCCNc6cccc7c6C(=O)N(C6CCC(=O)NC6=O)C7=O)CC5)cn4)ncc3F)cc21 (centres unmarked) [Compound 6] | 1000 to 5000 nM |
| C[C@@]1(O)CCC[C@H]1n1c(=O)ccc2cnc(NC3CCN(S(=O)(=O)C4CCN(C(=O)C5CCN(c6cc7c(cc6F)C(=O)N(C6CCC(=O)NC6=O)C7=O)CC5)CC4)CC3)nc21 (some centres unmarked) [Compound 67] | 101 to 1000 nM |
| Cc1nc2c(F)cc(-c3nc(NC4CCN(S(=O)(=O)C5CCN(CC6CCN(c7cc8c(cc7F)C(=O)N(C7CCC(=O)NC7=O)C8=O)CC6)CC5)CC4)ncc3F)cc2n1C(C)C (centres unmarked) [Compound 71] | < 100 nM |
| Cc1nc2c(F)cc(-c3nc(Nc4ccc(S(=O)(=O)N5CCN(C6CCN(C7CN(c8cccc9c8C(=O)N(C8CCC(=O)NC8=O)C9=O)C7)CC6)CC5)cc4)ncc3F)cc2n1C(C)C (centres unmarked) [Compound 56] | 1000 to 5000 nM |
| Cc1nc2c(F)cc(-c3nc(Nc4ccc(S(=O)(=O)NCCOCCNc5cc6c(cc5F)C(=O)N(C5CCC(=O)NC5=O)C6=O)cc4)ncc3F)cc2n1C(C)C (centres unmarked) [Compound 70] | 101 to 1000 nM |
| C[C@@]1(O)CCC[C@H]1n1c(=O)ccc2cnc(NC3CCN(S(=O)(=O)C4CCN(C(=O)C56CC(NCC7CCN(c8cc9c(cc8F)C(=O)N(C8CCC(=O)NC8=O)C9=O)CC7)(C5)C6)CC4)CC3)nc21 (some centres unmarked) [Compound 36] | 101 to 1000 nM |
| C[C@@]1(O)CCC[C@H]1n1c(=O)ccc2cnc(NC3CCN(S(=O)(=O)C4CCN(C5CC(C6CCN(c7cc8c(cc7F)C(=O)N(C7CCC(=O)NC7=O)C8=O)CC6)C5)CC4)CC3)nc21 (some centres unmarked) [Compound 96] | > 10000 nM |
| C[C@@]1(O)CCC[C@H]1n1c(=O)ccc2cnc(NC3CCN(S(=O)(=O)C4CCN(C5CC6(C5)CN(C(=O)C5CCN(c7cc8c(cc7F)C(=O)N(C7CCC(=O)NC7=O)C8=O)CC5)C6)CC4)CC3)nc21 (some centres unmarked) [Compound 85] | 1000 to 5000 nM |
| CC(C)N1CCOc2c(F)cc(-c3nc(Nc4ccc(C5CCN(CCCCNC(=O)COc6cccc7c6C(=O)N(C6CCC(=O)NC6=O)C7=O)CC5)nc4)ncc3F)cc21 (centres unmarked) [Compound 30] | 101 to 1000 nM |
| Cc1nc2c(F)cc(-c3nc(Nc4ccc(S(=O)(=O)NCCOCCOCCOCCNc5cccc6c5C(=O)N(C5CCC(=O)NC5=O)C6=O)cc4)ncc3F)cc2n1C(C)C (centres unmarked) [Compound 48] | 1000 to 5000 nM |
| C[C@@]1(O)CCC[C@H]1n1c(=O)ccc2cnc(NC3CCN(S(=O)(=O)C4CCN(C(=O)C5CCC6(CC5)CCN(c5cc7c(cc5F)C(=O)N(C5CCC(=O)NC5=O)C7=O)CC6)CC4)CC3)nc21 (some centres unmarked) [Compound 78] | 101 to 1000 nM |
| C[C@@]1(O)CCC[C@H]1n1c(=O)ccc2cnc(Nc3ccc(S(=O)(=O)C4CCN(CC5CCN(c6cccc7c6C(=O)N(C6CCC(=O)NC6=O)C7=O)CC5)CC4)cc3)nc21 (some centres unmarked) [Compound 44] | > 10000 nM |
| Cc1nc2c(F)cc(-c3nc(Nc4ccc(S(=O)(=O)N5CCC6(CCN(C(=O)COc7cccc8c7C(=O)N(C7CCC(=O)NC7=O)C8=O)CC6)CC5)cc4)ncc3F)cc2n1C(C)C (centres unmarked) [Compound 39] | 1000 to 5000 nM |
| CC(C)N1CCOc2c(F)cc(-c3nc(NC4CCN(S(=O)(=O)C5CCN(C6CC7(CCN(c8cc9c(cc8F)C(=O)N(C8CCC(=O)NC8=O)C9=O)CC7)C6)CC5)CC4)ncc3F)cc21 (centres unmarked) [Compound 51] | > 10000 nM |
| CC(C)N1CCOc2c(F)cc(-c3nc(Nc4ccc(C5CCN(C(=O)COCCOCCNc6cccc7c6C(=O)N(C6CCC(=O)NC6=O)C7=O)CC5)cn4)ncc3F)cc21 (centres unmarked) [Compound 5] | < 100 nM |
| Cc1nc2c(F)cc(-c3nc(Nc4ccc(S(=O)(=O)NCCOCCOCCNc5cccc6c5C(=O)N(C5CCC(=O)NC5=O)C6=O)cc4)ncc3F)cc2n1C(C)C (centres unmarked) [Compound 49] | 1000 to 5000 nM |

Same assay, conditions: luminescence, read-out: IC50, inhibitory effect on cellular proliferation

| Structure (SMILES) | IC50 |
| --- | --- |
| CC(C)N1CCOc2c(F)cc(-c3nc(Nc4ccc(C5CCN(CCCCCCOc6cccc7c6C(=O)N(C6CCC(=O)NC6=O)C7=O)CC5)cn4)ncc3F)cc21 (centres unmarked) [Compound 3] | > 10000 nM |
